In experiment [1] the test system is transferrin uptake (CME) in U2OS osteosarcoma cells. The experiment can be described thus: Clathrin-mediated endocytosis assay: transferrin (Tfn) uptake in U2OS cells. Format: cell-based. The conditions noted are these: Homo sapiens, U2OS; for inhibition at 5 µM: read-out: 2-point CME (% Inhibition) 5 µM. The procedure:
Using our previously reported CME assay in U2OS cells, the ability of these compounds to block endocytosis was examined (Table 5 ).^[ [48], [49] ^]
CME was examined by a high‐throughput, quantitative assay for measuring transferrin (Tfn) uptake in U2OS osteosarcoma cells, based on methods described previously.^[ [48] ^]
Compounds were made up fresh from powder stock just prior to commencing the assay, and stock solutions were stored at −20 °C for several months.

The target in experiment [2] is T1, clathrin heavy chain NTD (amino acids 1–364) – amphiphysin 1 B/C domain protein–protein interaction (NTD‐PPI) (Homo sapiens, UniProt Q00610).
T1 construct: GST‐tagged clathrin heavy chain NTD (amino acids 1–364); made in house
T1 sequence (Q00610 1-364): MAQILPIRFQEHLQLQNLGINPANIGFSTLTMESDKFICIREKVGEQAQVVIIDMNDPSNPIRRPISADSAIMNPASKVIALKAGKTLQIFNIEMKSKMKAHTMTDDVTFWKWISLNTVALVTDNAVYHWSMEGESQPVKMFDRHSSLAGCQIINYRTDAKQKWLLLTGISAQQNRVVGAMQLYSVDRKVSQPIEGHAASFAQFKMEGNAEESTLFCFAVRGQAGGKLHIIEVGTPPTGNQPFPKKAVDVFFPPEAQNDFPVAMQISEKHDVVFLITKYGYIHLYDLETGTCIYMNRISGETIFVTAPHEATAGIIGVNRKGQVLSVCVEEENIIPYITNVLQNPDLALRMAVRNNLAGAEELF
Description: ELISA-based clathrin inhibitor binding assay (NTD-PPI). The procedure:
The clathrin inhibitor assay was based inhibition of protein–protein interaction (PPI) between clathrin and amphiphysin as described in our previous report.^[ [45], [54] ^] Bacterially expressed recombinant purified His6‐tagged amphiphysin 1 B/C domain (which comprises both the clathrin and the AP‐2 binding sites, amino acids 250‐578^[ [55] ^]) in screening buffer (20 mM HEPES, pH 7.4, 50 mM NaCl, 1 mM DTT, 1 mM PMSF) was added to a 384 well ELISA plate (Corning Maxisorp 3700) and bound to the plastic for 1 h at room temperature. […] Following extensive washes (with 20 mM HEPES, pH 7.4, 50 mM NaCl, 0.05% Tween 20), chemical compounds diluted in DMSO (10 μL) were added and incubated together with bacterially expressed recombinant GST‐tagged clathrin heavy chain NTD (amino acids 1–364) for 1 h at room temperature in screening buffer. After 3 washes, horseradish peroxidase‐coupled anti‐GST antibodies were added in screening buffer and the plate incubated for 40 min at room temperature. Following additional washes, 50 μL TMB (3,3′,5,5′‐tetramethylbenzidine) (Pierce Biotechnology) chromogenic substrate of horseradish peroxidase was added, and the plate was incubated for 10 min before the reaction was terminated by adding 50 μL 1N sulfuric acid to produce a yellow colour. The amount of bound protein was determined by spectrophotometric measurement in a plate reader. Relative binding was calculated as a percentage of DMSO control.
On the technique in general: ELISA stands for enzyme-linked immunosorbent assay.

Experiment [3] has as its target T2, full length human Dynamin I (Homo sapiens, UniProt Q05193).
T2 construct: full length human Dynamin I expressed in Sf21 insect cells; made in house; host or cells: Sf21 insect cells
T2 sequence (Q05193 1-864): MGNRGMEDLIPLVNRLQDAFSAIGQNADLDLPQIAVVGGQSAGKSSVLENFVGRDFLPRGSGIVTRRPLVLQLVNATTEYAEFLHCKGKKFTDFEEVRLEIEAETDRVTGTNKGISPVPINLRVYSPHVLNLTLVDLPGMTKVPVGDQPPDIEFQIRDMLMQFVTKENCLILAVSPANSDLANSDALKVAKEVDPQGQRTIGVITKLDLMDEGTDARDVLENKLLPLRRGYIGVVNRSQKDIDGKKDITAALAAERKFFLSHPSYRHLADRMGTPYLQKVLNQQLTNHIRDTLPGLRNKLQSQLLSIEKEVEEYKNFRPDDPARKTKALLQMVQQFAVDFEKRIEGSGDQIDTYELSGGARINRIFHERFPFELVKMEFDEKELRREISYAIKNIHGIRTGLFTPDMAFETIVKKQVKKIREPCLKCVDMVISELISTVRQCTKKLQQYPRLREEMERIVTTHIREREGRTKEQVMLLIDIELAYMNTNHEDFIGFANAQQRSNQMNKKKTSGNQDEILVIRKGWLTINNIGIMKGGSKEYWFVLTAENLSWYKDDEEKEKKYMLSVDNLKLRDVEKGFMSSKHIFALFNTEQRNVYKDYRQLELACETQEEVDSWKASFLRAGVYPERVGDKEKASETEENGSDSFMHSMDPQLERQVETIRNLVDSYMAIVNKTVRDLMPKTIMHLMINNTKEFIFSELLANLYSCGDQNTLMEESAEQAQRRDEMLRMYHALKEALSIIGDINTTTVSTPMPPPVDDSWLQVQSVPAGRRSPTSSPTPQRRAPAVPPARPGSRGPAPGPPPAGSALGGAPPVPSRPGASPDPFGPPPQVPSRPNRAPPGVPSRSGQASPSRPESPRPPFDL
Description: Dynamin GTPase activity, Malachite Green phosphate detection assay. In kind it is biochemical. On the procedure: Dynamin GTPase activity was determined in vitro using the Malachite Green phosphate detection absorbance‐based assay within a 96‐well plate format as described previously. The enzyme source was full length human Dynamin I expressed in Sf21 insect cells and affinity‐purified on GST‐Amph2‐SH3 (rat Amphiphysin 2 (494–588)).^[ [56] ^]

Setting [4] is: Table 5, inhibition of transferrin‐red uptake in U2OS cells, '–'/NA = not active at 100 μM.
Where [5] appears, read: Table 4, library 4, ELISA, average of duplicate measurements (n = 2), read-out: NTD‐PPI IC50.
[6] abbreviates: Table 5, ELISA, read-out: NTD‐PPI IC50.
The mark [7] stands for this setting: Table 2, library 2, ELISA, average of duplicate measurements (n=2), read-out: NTD‐PPI IC50.
Where [8] appears, read: Table 2, library 2, n = 3, triplicate, '–' = not active at 100 μM, read-out: Dyn 1 IC50.
Setting [9] is: Table 1, library 1, ELISA, average of duplicate measurements (n=2), read-out: NTD‐PPI IC50.
Setting [10] is: Table 1, library 1, n = 1 unless noted (19: n = 2), '–' = not active at 150 μM, read-out: Dyn 1 IC50.

Each structure is given as a SMILES string. Like-named read-outs stand apart in the source and are kept apart here. A value given as a limit tells only on which side of the number the result lay.

Broadly, the IC50 is the concentration needed to halve the response being measured. With `O=C1N=C(NS(=O)(=O)c2cccc3ccccc23)S/C1=C\c1ccoc1` [compound 46, (Z)‐N‐(5‐(furan‐3‐ylmethylene)‐4‐oxo‐4,5‐dihydrothiazol‐2‐yl)naphthalene‐1‐sulfonamide], the IC50 amounted to 31.5 ± 9.2 µM in experiment [1] (setting [4]), 2.11 µM in experiment [2] (setting [5]) and 2.11 µM in experiment [2] (setting [6]).
As to `O=C1N=C(NS(=O)(=O)c2cccc3ccccc23)S/C1=C\c1cc[nH]c1` [compound 45, (Z)‐N‐(5‐((1H‐pyrrol‐3‐yl)methylene)‐4‐oxo‐4,5‐dihydrothiazol‐2‐yl)naphthalene‐1‐sulfonamide], the IC50 in experiment [1] (setting [4]) is roughly 108 µM; in experiment [1] (U2OS cells), greater than 50 µM; in experiment [2] (setting [5]), 3 µM; in experiment [2] (setting [6]), 3 µM; in experiment [2] (read-out: NTD‐PPI IC50 (ELISA)), 33 µM.
With `O=C1N=C(NS(=O)(=O)c2cccc3ccccc23)S/C1=C\c1ccc(CO)o1` [compound 51, (Z)‐N‐(5‐((5‐(hydroxymethyl)furan‐2‐yl)methylene)‐4‐oxo‐4,5‐dihydrothiazol‐2‐yl)naphthalene‐1‐sulfonamide], the IC50 in experiment [1] (setting [4]) was roughly 156 µM; in experiment [1] (U2OS cells), greater than 50 µM; in experiment [2] (setting [5]) it was 6.33 µM; in experiment [2] (setting [6]), 6.33 µM; in experiment [2] (read-out: NTD‐PPI IC50 (ELISA)) it was 6.3 µM. The “NTD‐PPI activity relative to halogenated furans (49, 50)” value in experiment [2] (ELISA, in words) was “threefold less active”.
One may read the inhibition as how much of the control response was suppressed. `O=C1N=C(NS(=O)(=O)c2cccc3ccccc23)S/C1=C\C1=Cc2ccccc2OC1` [compound 55, (Z)‐N‐(5‐((2H‐chromen‐3‐yl)methylene)‐4‐oxo‐4,5‐dihydrothiazol‐2‐yl)naphthalene‐1‐sulfonamide]: the inhibition at 5 µM in experiment [1] stood at 0%. The inhibition at 50 µM in experiment [1] (read-out: 2-point CME (% Inhibition) 50 µM) turned out to be 40%. The IC50 came out at 69.3 ± 7.1 µM in experiment [3] (Table 4, library 4, n = 1 or n = 2 as footnoted, '–' = not active at 100 μM, read-out: Dynamin 1 IC50) and 69 µM in experiment [3] (values quoted in running text (section 2.2), read-out: Dynamin IC50).
As for `O=C1N=C(NS(=O)(=O)c2cccc3ccccc23)S/C1=C\C1CCCC1` [compound 41, (Z)‐N‐(5‐(cyclopentylmethylene)‐4‐oxo‐4,5‐dihydrothiazol‐2‐yl)naphthalene‐1‐sulfonamide], in experiment [1], the inhibition at 5 µM was determined as 11%. Besides, the 50% inhibitory concentration (IC50) in experiment [3] (Table 3, library 3, n = 1 unless otherwise stated (41, 42: n = 2), '–' = not active at 100 μM, read-out: Dynamin 1 IC50) is greater than 100 µM; in experiment [3] (Table S1, preliminary (n=1) unless otherwise noted, NA = not active, includes IC50 > 150 μM, read-out: Dynamin 1 IC50), greater than 150 µM.
For `O=C1N=C(NS(=O)(=O)c2cccc3ccccc23)S/C1=C\c1ccc(Cl)o1` [compound 49, (Z)‐N‐(5‐((5‐chlorofuran‐2‐yl)methylene)‐4‐oxo‐4,5‐dihydrothiazol‐2‐yl)naphthalene‐1‐sulfonamide], the half-maximal inhibitory concentration (IC50) was 52.6 ± 9.1 µM in experiment [1] (setting [4]); greater than 50 µM in experiment [1] (U2OS cells); 3.31 µM in experiment [2] (setting [5]); 3.31 µM in experiment [2] (setting [6]); 3.3 µM in experiment [2] (read-out: NTD‐PPI IC50 (ELISA)).
`O=C1N=C(NS(=O)(=O)c2cccc3ccccc23)S/C1=C\c1ccc(Br)o1` [compound 50, (Z)‐N‐(5‐((5‐bromofuran‐2‐yl)methylene)‐4‐oxo‐4,5‐dihydrothiazol‐2‐yl)naphthalene‐1‐sulfonamide]: the half-maximal inhibitory concentration (IC50) in experiment [1] (setting [4]) is 42.3 ± 25.7 µM.
In the case of `O=C1N=C(NS(=O)(=O)c2cccc3ccccc23)S/C1=C\c1cccc(Cl)c1Cl` [compound 34, (Z)‐N‐(5‐(2,3‐dichlorobenzylidene)‐4‐oxo‐4,5‐dihydrothiazol‐2‐yl)naphthalene‐1‐sulfonamide], the IC50 in experiment [2] (setting [7]) is 26.1 µM; in experiment [3] (setting [8]), greater than 100 µM.
The molecule `O=C1N=C(NS(=O)(=O)c2cccc3ccccc23)S/C1=C\c1ccsc1` [compound 44, (Z)‐N‐(4‐oxo‐5‐(thiophen‐3‐ylmethylene)‐4,5‐dihydrothiazol‐2‐yl)naphthalene‐1‐sulfonamide] came in with an IC50 in experiment [1] (setting [4]) of 36.4 ± 13.7 µM.
Regarding `COc1ccc(/C=C2\SC(NS(=O)(=O)c3cccc4ccccc34)=NC2=O)c(OC)c1` [compound 30, (Z)‐N‐(5‐(2,4‐dimethoxybenzylidene)‐4‐oxo‐4,5‐dihydrothiazol‐2‐yl)naphthalene‐1‐sulfonamide], the figures for the 50% inhibitory concentration (IC50) in experiment [2] (setting [7]) and in experiment [3] (setting [8]) were 1 µM and greater than 100 µM, respectively.
Regarding `O=C1N=C(NS(=O)(=O)c2cccc3ccccc23)S/C1=C\c1ccccc1O` [compound 8, (Z)‐N‐(5‐(2‐hydroxybenzylidene)‐4‐oxo‐4,5‐dihydrothiazol‐2‐yl)naphthalene‐1‐sulfonamide], the IC50 in experiment [2] (setting [9]) is 2.1 µM; in experiment [3] (setting [10]), greater than 150 µM.
On to `COc1cc(/C=C2\SC(NS(=O)(=O)c3cccc4ccccc34)=NC2=O)cc(OC)c1OC` [compound 33, (Z)‐N‐(4‐oxo‐5‐(3,4,5‐trimethoxybenzylidene)‐4,5‐dihydrothiazol‐2‐yl)naphthalene‐1‐sulfonamide], for which the IC50 in experiment [2] (setting [7]) is 14.1 µM; in experiment [3] (setting [8]), greater than 100 µM.
The corresponding values for `O=C1N=C(NS(=O)(=O)c2cccc3ccccc23)S/C1=C\c1ccc(Cl)c(Cl)c1` [compound 36, (Z)‐N‐(5‐(3,4‐dichlorobenzylidene)‐4‐oxo‐4,5‐dihydrothiazol‐2‐yl)naphthalene‐1‐sulfonamide] are 4.1 µM and 95.1 ± 7.4 µM.
For the molecule `CC(C)c1ccc(/C=C2\SC(NS(=O)(=O)c3cccc4ccccc34)=NC2=O)cc1` [compound 21, (Z)‐N‐(5‐(4‐isopropylbenzylidene)‐4‐oxo‐4,5‐dihydrothiazol‐2‐yl)naphthalene‐1‐sulfonamide], the IC50 was 4.1 µM in experiment [2] (setting [9]) and greater than 150 µM in experiment [3] (setting [10]).
Turning to `COc1ccc(/C=C2\SC(NS(=O)(=O)c3cccc4ccccc34)=NC2=O)cc1OC` [compound 31, (Z)‐N‐(5‐(3,4‐dimethoxybenzylidene)‐4‐oxo‐4,5‐dihydrothiazol‐2‐yl)naphthalene‐1‐sulfonamide], the IC50 in experiment [2] (setting [7]) is 2.2 µM; in experiment [3] (setting [8]), 91 µM.
`O=C1N=C(NS(=O)(=O)c2cccc3ccccc23)SC1=Cc1cccc(-c2ccccc2)c1` [compound 17, N‐(5‐([1,1'‐biphenyl]‐3‐ylmethylene)‐4‐oxo‐4,5‐dihydrothiazol‐2‐yl)naphthalene‐1‐sulfonamide]: the IC50 was 4.02 µM in experiment [2] (setting [9]) and greater than 150 µM in experiment [3] (setting [10]).

Values taken from publication PMC12368479, “Inhibition of the Clathrin Terminal Domain—Amphiphysin Protein–Protein Interaction. Probing the Pitstop 2 Aromatic Moiety” (Chemmedchem, 2025).
